Marks after values point to notes of the source that are not given here.
Columns and labels:
SKOV3 = test: Cytotoxicity in wild-type (NR−) human ovarian cell line SKOV3; type: cell-based
SC3.2 = test: Cytotoxicity in NTR-transfected (NR+) human ovarian cell line SC3.2; type: cell-based; settings: for IC50: SC3.2 NTR-transfected, 18 h exposure; for Ratio = IC50(NR−)/IC50(NR+) Human Ovarian: SKOV3 / SC3.2, 18 h exposure
WIDR = test: Cytotoxicity in wild-type (NR−) human colon cell line WIDR; type: cell-based
WC14.10 = test: Cytotoxicity in NTR-transfected (NR+) human colon cell line WC14.10; type: cell-based; settings: for IC50: WC14.10 NTR-transfected
[1] = system: A549 human lung carcinoma cells; test: Cytotoxicity in oxic and anoxic wild-type A549 human lung carcinoma cells; type: cell-based; settings: 4 h exposure; for IC50: anoxic, read-out: IC50 WT anoxic
[2] = system: A549 transfected with human cytochrome P450 reductase (P450R); test: Cytotoxicity in oxic and anoxic A549 cells transfected with human cytochrome P450 reductase; type: cell-based; settings: 4 h exposure; for IC50: anoxic
[3] = Friedlos et al., J. Med. Chem. 1997, 40, 1270; cited from earlier work

Structure (SMILES)	IC50 (SKOV3; 18 h exposure) [µM]	IC50 (SC3.2) [µM]	Ratio = IC50(NR−)/IC50(NR+) Human Ovarian (SC3.2)	IC50 (WIDR; 18 h exposure) [µM]	IC50 (WC14.10; 18 h exposure) [µM]	Ratio = IC50(NR−)/IC50(NR+) Human colon (WC14.10; WIDR / WC14.10, 18 h exposure)	WT Ratio = IC50(aerobic)/IC50(anoxic) [1]	IC50 [1] [µM]	P450R ratio = IC50(aerobic)/IC50(anoxic) [2]	IC50 [2] [µM]	IC50 (WIDR; 4 h exposure) [µM]	IC50 (WC14.10; 4 h exposure) [µM]	Ratio = IC50(NR−)/IC50(NR+) Human colon (WC14.10; WIDR / WC14.10, 4 h exposure)	IC50 (SKOV3; Homo sapiens, SK-OV-3, 18 h exposure) [µM]	IC50 (SC3.2; Homo sapiens) [µM]	IC50 (WIDR; Homo sapiens, 18 h exposure) [µM]	IC50 (WC14.10; Homo sapiens, 18 h exposure) [µM]	melting point [°C]	potency as described in the literature [3]
CS(=O)(=O)OCCN(CCBr)c1cc(C(=O)NCCO)c([N+](=O)[O-])cc1[N+](=O)[O-] [IIa5, 2-((2-Bromoethyl)5-{[(2-hydroxyethyl)amino]carbonyl}-2,4-dinitroanilino)ethyl methanesulfonate]	286	0.61	470	192	0.77	250	5.2	139	9.9	73	–	–	–	–	–	–	–	–	–
CS(=O)(=O)OCCN(CCBr)c1c(C(=O)NCCO)cc([N+](=O)[O-])cc1[N+](=O)[O-] [IIb3, 2-((2-Bromoethyl)-2-{[(2-hydroxyethyl)amino]carbonyl}-4,6-dinitroanilino)ethyl methanesulfonate]	5.2	0.04	142	3.7	0.06	66	26	2.3	133	0.28	–	–	–	–	–	–	–	–	–
CS(=O)(=O)OCCN(CCI)c1c(C(=O)NCCO)cc([N+](=O)[O-])cc1[N+](=O)[O-] [IIb4, 2-((2-Iodoethyl)-2-{[(2-hydroxyethyl)amino]carbonyl}-4,6-dinitroanilino)ethyl methanesulfonate]	–	–	–	–	–	–	7	4.5	95	0.45	9	0.29	31^f	–	–	–	–	–	–
CC(O)CNC(=O)c1cc([N+](=O)[O-])cc([N+](=O)[O-])c1N(CCBr)CCOS(C)(=O)=O (stereo not drawn) [IIb5, 2-((2-Bromoethyl)-2-{[(2-hydroxypropyl)amino]carbonyl}-4,6-dinitroanilino)ethyl methanesulfonate]	–	–	–	–	–	–	19	4	150	0.34	2.9	0.25	12^f	–	–	–	–	–	–
COC(=O)CCNC(=O)c1cc([N+](=O)[O-])cc([N+](=O)[O-])c1N(CCCl)CCOS(C)(=O)=O [IIb8, Methyl 3-{[2-((2-chloroethyl){2-[(methylsulfonyl)oxy]ethyl}amino)-3,5-dinitrobenzoyl]amino}propanoate]	–	–	51	–	–	13	–	–	–	–	–	–	–	9.7	0.19	4.3	0.36	128 to 130	–
CS(=O)(=O)OCCN(CCBr)c1c([N+](=O)[O-])ccc(C(=O)NCCO)c1[N+](=O)[O-] [IIc3, 2-((2-Bromoethyl)-3-{[(2-hydroxyethyl)amino]carbonyl}-2,6-dinitroanilino)ethyl methanesulfonate]	–	–	–	–	–	–	20	28	146	2.9	425	5.1	83^f	–	–	–	–	–	–
CS(=O)(=O)OCCN(CCCl)c1ccc([N+](=O)[O-])c(C(=O)NCCCO)c1[N+](=O)[O-] [IIc4, 2-((2-Chloroethyl)-3-{[(3-hydroxypropyl)amino]carbonyl}-2,4-dinitroanilino)ethyl methanesulfonate]	800	1.6	549	392	2.6	215	26	82	108	7.3	–	–	–	–	–	–	–	–	–
CS(=O)(=O)OCCN(CCBr)c1c([N+](=O)[O-])ccc(C(=O)NCCCO)c1[N+](=O)[O-] [IIc5, 2-((2-Bromoethyl)-3-{[(3-hydroxypropyl)amino]carbonyl}-2,6-dinitroanilino)ethyl methanesulfonate]	280	0.57	497	209	0.85	301	30	52	134	4.5	–	–	–	–	–	–	–	–	–
CS(=O)(=O)OCCN(CCCl)c1cc(C(N)=O)c([N+](=O)[O-])cc1[N+](=O)[O-] [No 5, 2-[5-(aminocarbonyl)(2-chloroethyl)-2,4-dinitroanilino]ethyl methanesulfonate]	–	–	–	–	–	–	–	–	–	–	–	–	–	–	–	–	–	–	not sufficiently potent for a full biological evaluation to be conducted
